# Experimental data: patent US20010006656A1, “METHODS AND COMPOSITIONS FOR INHIBITING INFLAMMATION ASSOCIATED WITH PULMONARY DISEASE” (UNIVERSITY OF WASHINGTON, priority 1999, published 2001)
# How the values were obtained:
# RhoA = RhoA immunoblot (electrophoretic mobility as measure of isoprenylation) in Jurkat cells; type: cell-based
# Experimental: Cell lysates were subjected to immunoblot analysis to assess RhoA electrophcoretic mobility as a measurement of isoprenylation. For RhoA blots, membranes were sequentially incubated with rabbit anti-RhoA antibody (Santa Cruz Biotechnology, Inc.) in TBST at room temperature for three hours, washed with TBST five times, incubated with goat anti-rabbit IgG (H+L) conjugated with horse radish peroxidase (HRP) (Bio-Rad Laboratories; Hercules Calif.) for one hour, and then washed with TBST five times. RhoA bands were visualized on x-ray film by incubation of membrane with chemiluminescence luminol reagent (Santa Cruz Biotechnology) at room temperature for one minute.
# [1] = system: Jurkat cell adherence to FN; assay: Jurkat cell adherence to fibronectin (calcein-AM fluorescence); type: cell-based; details: for reversal of the inhibitory effect of lovastatin on PMA-stimulated Jurkat cell adhesion: co-incubated with lovastatin 2.5 days
# Experimental: (§1) Briefly, Jurkat and U937 cells (American Type Culture Collection; Manassas Va.) were maintained in Earles Modified Eagles Medium (EMEM; M. A. Bioproducts, Walkersville, Md.) supplemented with 10% fetal bovine serum (FBS; Hyclone Laboratories Inc.; Logan Utah), 5 mM glutamine (Life Technologies Inc.; Gaithersburg Md.), 5 mM sodium pyruvate (Life Technologies), and […] (Life Technologies). Lovastatin (Calbiochem; San Diego Calif.) was converted to open acid form before use. […] The solution was heated to 50° C. for two hours. To this heated solution, 4.5 ml of an aqueous solution containing 81 mM NaH2PO4 and […] was added. The solution was heated to 40° C. for 30 min and the pH was adjusted to 7.3 with concentrated HCl. The final concentration was determined by UV spectroscopy (ε231 =21,490 M^−1cm^−1). The stock solution was frozen in small aliquots.
# Cell adhesion of Jurkat cells and U937 cells to fibronectin (FN) or laminin (LN), respectively, was measured. Human FN (1.25 μg/ml)(Collaborative Research Inc.; Bedford Mass.) or human LN (100 μg/ml)(Life Technologies) was coated onto 96-well PRO-BIND assay plate (Falcon; Becton Dickinson; Lincoln Park N.J.) by incubating overnight at 4° C. The plate was then blocked with 3% bovine serum albumin (BSA) in phosphate buffered saline (PBS) at room temperature for one hour. Immediately before use, plates were washed three times with PBS.
# (§2) After centrifugation for seven min at 300 xg, cells were resuspended in 1 ml phenol red-free medium and then labeled by incubation with 5 μl of the fluorescent dye calcein-AM (1 mg/ml in DMSO; Molecular Probes; Eugene Oreg.) for 30 min at room temperature in the dark. The cells were then washed twice with phenol red-free medium. After incubation with phorbol 12-myristate 13--acetate (PMA) (100 ng/ml) (Sigma; St. Louis Mo.), which is an activator of protein kinase C (PKC), or MAb 8A2 (2 μg/ml) for 30 min in control medium at room temperature, cells (˜1×10^5/well) were added to triplicate wells. After incubation for 30 min at 37° C., the total cells in the well were analyzed using a fluorescence plate reader (PerSeptive Biosystem; Framingham Mass.). Unbound cells were removed by washing the plate three times with phenol red-free medium, and the plate was then reanalyzed to determine fluorescence of bound cells. After subtraction of background, the percent adherence was calculated as the emission at 530 nm of bound cells divided by the […] of total cells.
# ERK1 = assay: Immunoblot for phosphorylated ERK1 in PMA-treated Jurkat cells; type: cell-based
# [2] = system: U937 cell adherence to LN; assay: U937 cell adherence to laminin (calcein-AM fluorescence); type: cell-based
# Experimental: as §1
# Cell adhesion of Jurkat cells and U937 cells to fibronectin (FN) or laminin (LN), respectively, was measured. Human FN (1.25 μg/ml)(Collaborative Research Inc.; Bedford Mass.) or human LN (100 μg/ml)(Life Technologies) was coated onto 96-well PRO-BIND assay plate (Falcon; Becton Dickinson; Lincoln Park N.J.) by incubating overnight at 4° C. […]
# as §2, with “The cells were then washed twice with phenol red-free medium. After incubation with phorbol 12-myristate 13--acetate (PMA) (100 ng/ml) (Sigma; St. Louis Mo.), which is an activator of protein kinase C (PKC), or MAb 8A2 (2 μg/ml) for 30 min in control medium at room temperature, cells (˜1×10^5/well) were added to triplicate wells.” left out
# KC = KC chemokine ELISA in lung lavage fluid of LPS-challenged mice; type: in vivo, murine
# Experimental: (§3) Lavage fluids were used to measure cytokine production. The murine chemoattractant KC is a member of the CXC chemokine family of inflammatory cytokines and was measured by ELISA (R&D Systems; Minneapolis Minn.). The pro-inflammatory cytokine murine TNFα was also measured by ELISA (R&D Systems). The protocol for both assays was similar. Briefly, assay diluent was mixed with sample, which was the lavage fluid obtained as described in Example IV. The diluent was added to the appropriate capture plate and incubated for two hours. Plates were washed, incubated with conjugated anti-KC or anti-TNFα antibody for two hours, washed again, and then incubated with substrate for 30 min. A stop solution was then added, and the optical density determined by plate reader.
# [3] = system: neutrophil (PMN) and mononuclear cell migration into lung; assay: LPS-induced pulmonary inflammation in mice, cell counts in lung lavage fluid; type: in vivo
# Experimental: (§4) Pulmonary inflammation was induced in mice using a technique similar to that reported by others (Szarka et al., J. Immunol. Methods 202:49-57 (1997)). Briefly, mice were anesthetized with halothane, then 2.5 μl/g was placed into their nares where it was rapidly taken into the trachea and deep into the lungs. […] Compounds were administered in a given amount per g of mouse body weight. In a second set of experiments, PMA (50 ng/μl final concentration; 5 mg/ml stock solution in dimethyl sulfoxide) was used in place of LPS. Mice were allowed to recover from anesthesia and returned to their cages with free access to food and water.
# At either 24 (LPS and PMA) or 48 (LPS) hours, mice were returned to the laboratory and killed, their chest rapidly opened, then both lungs were lavaged with 0.5 ml of normal saline followed by a second lavage of another 0.5 ml of normal saline that was lavaged in and out four times. The lavage fluid was combined, total cell counts determined using a hemocytometer, cytospin preparations were then made, the cells stained using the commercial kit (DiffQuik; Baxter Healthcare Corp.; Miami Fla.), and differential cells counts completed. The total number of mononuclear cells and neutrophils in the lavage fluid was determined by counting 100 cells. The number of neutrophils or macrophages was determined by multiplying the percentages by the total cell count. Differences between groups were tested using the computer program Stat View (Abacus Concepts; Berkeley Calif.) by analysis of variances and post hoc testing using Fisher's protected least square differences. Differences were assumed significant for p<0.05. The lavage fluid remaining after cytospin and cell counts was subjected to centrifugation, and the supernatant collected and frozen at −20° C. for later cytokine analysis. […] Thus, lavage fluid was derived from regions where LPS was deposited as well as those regions receiving no challenge.
# The LPS was given at the same time as the last dose of lovastatin by i.n. instillation as described above. […] Mice were returned to their cages with free access to food and water for 24 hours, then returned to the laboratory and killed. Lavage was performed and cell counts completed as described above.
# [4] = Mouse hind limb ischemia and reperfusion, leg diameter; type: in vivo; details: 7 μg/g i.p. at beginning of 30 min ischemia; 24 hours; t-test
# Experimental: Briefly, mice were anesthetized with halothane. A tourniquet was then placed on one hind limb to completely occlude blood flow and kept in place for 30 min. Body temperature was maintained at 37° C. with a heating blanket during the period of ischemia. Perfusion of the hind limb was re-established by removal of the tourniquet, and leg diameter was measured hourly for the next 6 hours and again at 24 hours.
# [5] = system: neutrophil (PMN) and mononuclear cell migration into lung; assay: PMA-induced pulmonary inflammation in mice, cell counts in lung lavage fluid; type: in vivo; details: i.n. lovastatin 7.0 μg/g with i.n. PMA; 24 hours
# Experimental: as §4
# At either 24 (LPS and PMA) or 48 (LPS) hours, mice were returned to the laboratory and killed, their chest rapidly opened, then both lungs were lavaged with 0.5 ml of normal saline followed by a second lavage of another 0.5 ml of normal saline that was lavaged in and out four times. The lavage fluid was combined, total cell counts determined using a hemocytometer, cytospin preparations were then made, the cells stained using the commercial kit (DiffQuik; Baxter Healthcare Corp.; Miami Fla.), and differential cells counts completed. The total number of mononuclear cells and neutrophils in the lavage fluid was determined by counting 100 cells. The number of neutrophils or macrophages was determined by multiplying the percentages by the total cell count. […]
# TNFα = TNFα ELISA in lung lavage fluid of LPS-challenged mice; type: in vivo, murine
# Experimental: as §3
smiles,measurement,setting,value
"CC(C)=CCC/C(C)=C/CC/C(C)=C/CC/C(C)=C/CO [GGOH, all trans-geranylgeraniol]",RhoA migration on addition with lovastatin,RhoA; GGOH 5 μM with lovastatin,more rapid migration of RhoA as seen in untreated cells
same,concentration required to rescue Jurkat cell from the inhibitory effect of lovastatin,[1]; 10 μM lovastatin (FIG. 3B),2.5 µM
same,reversal of the inhibitory effect of lovastatin on PMA-stimulated Jurkat cell adhesion,[1],reversed
"CC(C)=CCC/C(C)=C/CC/C(C)=C/CO [FOH, trans, trans-farnesol]",reversal of the inhibitory effect of lovastatin on PMA-stimulated Jurkat cell adhesion,[1],not
COc1cccc(-c2cc(=O)c3ccccc3o2)c1N [PD-98059],ERK1 phosphorylation,ERK1; Jurkat cells pre-incubated 30 min with MEK-1 inhibitor before PMA,completely blocked
same,PMA-stimulated Jurkat cell adherence,"[1]; 10 μM, 30 min pre-incubation before PMA",did not inhibit
CC[C@H](C)C(=O)O[C@H]1C[C@@H](C)C=C2C=C[C@H](C)[C@H](CC[C@@H]3C[C@@H](O)CC(=O)O3)[C@H]21 [lovastatin],isoprenylation state of RhoA,RhoA; 14 μM lovastatin,Most RhoA was in non-isoprenylated form
same,concentration at which geranylgeranylation of RhoA was significantly inhibited,"RhoA; Jurkat cells, 2.5 days",≥ 0.5 µM
same,inhibition of mAb 8A2-stimulated adherence of U937 cells to LN,"[2]; lovastatin pretreatment, 8A2 2 μg/ml",not
same,inhibition of PMA-stimulated adherence of U937 cells to LN,"[2]; lovastatin pretreatment, PMA 100 ng/ml",inhibited
same,effect on stimulated adherence when added at the time of the adhesion assay instead of pretreating,[2]; no pretreatment,without effect
same,concentration of KC chemokine in the lavage fluid,"KC; i.n. lovastatin, 24 hours after LPS, 7.0 μg/g group significantly different from control",reduced
same,KC concentration in the lavage fluid,"KC; i.n. lovastatin, 48 hours after LPS, four groups",not different
same,KC concentration in the lavage fluid,"KC; i.p. lovastatin pretreatment, 24 hours after i.n. LPS",significant reduction
same,percent of PMNs in lavage fluid compared with the control group,"[3]; i.n. lovastatin 0.7 μg/g with i.n. LPS, 24 hours",74%
same,percent of PMNs in lavage fluid compared with the control group,"[3]; i.n. lovastatin 0.7 μg/g with i.n. LPS, 48 hours",75%
same,percent of PMNs in lavage fluid compared with the control group,"[3]; i.n. lovastatin 1.4 μg/g with i.n. LPS, 24 hours",28%
same,percent of PMNs in lavage fluid compared with the control group,"[3]; i.n. lovastatin 1.4 μg/g with i.n. LPS, 48 hours",32%
same,percent of PMNs in lavage fluid compared with the control group,"[3]; i.n. lovastatin 7.0 μg/g with i.n. LPS, 24 hours",4%
same,percent of PMNs in lavage fluid compared with the control group,"[3]; i.n. lovastatin 7.0 μg/g with i.n. LPS, 48 hours",5%
same,total number of lavage mononuclear leukocytes,"[3]; i.n. lovastatin with i.n. LPS, 24 hours",no effect
same,number of mononuclear leukocytes in lavage fluid,"[3]; i.n. lovastatin with i.n. LPS, 48 hours, differences not statistically significant",somewhat less
same,"number of PMNs accumulating, percent of control group","[3]; i.p. lovastatin 7.0 μg/g daily x3, i.n. LPS, 24 hours, p<0.05",30%
same,number of mononuclear leukocytes in lavage fluid,"[3]; i.p. lovastatin 7.0 μg/g, i.n. LPS, 24 hours",not different between groups
same,"leg diameter after ischemia and reperfusion, vehicle vs lovastatin",[4],significantly larger diameter than the lovastatin treated leg
same,inhibition of PMN emigration,[5],~100%
same,"mononuclear cell number, control vs lovastatin treatment",[5],no difference
same,TNF concentration in lavage fluid,"TNFα; i.n. lovastatin, 24 hours, all doses significant vs control",reduced in a dose-dependent manner
same,"TNF concentration in lavage fluid, differences from control","TNFα; i.n. lovastatin, 48 hours",not significant
same,TNF production,"TNFα; i.p. lovastatin, 24 hours after i.n. LPS, statistically significant",effective in preventing TNF production
same,PMA-stimulated MAPK (ERK1) phosphorylation,"ERK1; Jurkat cells, lovastatin 2.5 days, concentrations up to 40 μM, PMA 100 ng/ml 30 min",does not inhibit
same,effect on mAb 8A2-stimulated Jurkat cell adherence to FN,"[1]; 8A2 2 μg/ml, 2.5 days pretreatment",no significant effect
same,inhibition of PMA-stimulated Jurkat cell adherence to FN,"[1]; concentration greater than 5 μM, 2.5 days pretreatment",nearly completely inhibited
